Test results taken from ChEMBL document CHEMBL1629541, “Synthesis and structure-activity relationships of aza- and diazabiphenyl analogues of the antitubercular drug (6S)-2-nitro-6-{[4-(trifluoromethoxy)benzyl]oxy}-6,7-dihydro-5H-imidazo[2,1-b][1,3]oxazine (PA-824)” (J Med Chem, 2010).
In brackets after ≈: the same amount, converted by molar mass.

What was measured:
[1] = physchem; settings: water, pH 7
Description: Solubility of the compound in water at pH 7.0 by HPLC

[2] = system: Mycobacterium tuberculosis; experiment: microbe, parasite or virus in culture; settings: H37Rv
Description: Antitubercular activity against Mycobacterium tuberculosis H37Rv by LORA method

[3] = system: Mycobacterium tuberculosis; experiment: microbe, parasite or virus in culture; settings: H37Rv; remark: listed apart in the source

| Structure (SMILES) | solubility [1] [µg/mL] | MIC [2] [µM] | MIC [3] [µM] |
| --- | --- | --- | --- |
| O=[N+]([O-])c1cn2c(n1)OC[C@@H](OCc1ccc(-c3ccccn3)cc1)C2 | 7.3 (≈ 20.7 µM) | 1.7 (≈ 0.599 µg/mL) | 0.21 (≈ 0.074 µg/mL) |
| O=[N+]([O-])c1cn2c(n1)OC[C@@H](OCc1cnc(-c3ccc(C(F)(F)F)nc3)nc1)C2 |  | 12 (≈ 5.07 µg/mL) | 0.16 (≈ 0.0676 µg/mL) |
| O=[N+]([O-])c1cn2c(n1)OC[C@@H](OCc1ncc(-c3ccc(C(F)(F)F)cc3)cn1)C2 | 2.7 (≈ 6.41 µM) | 3.5 (≈ 1.47 µg/mL) | 0.06 (≈ 0.0253 µg/mL) |
| O=[N+]([O-])c1cn2c(n1)OC[C@@H](OCc1cnc(-c3ccc(C(F)(F)F)cc3)cn1)C2 | 0.84 (≈ 1.99 µM) | 0.97 (≈ 0.409 µg/mL) | 0.08 (≈ 0.0337 µg/mL) |
| O=[N+]([O-])c1cn2c(n1)OC[C@@H](OCc1ccnc(-c3ccc(OC(F)F)cc3)c1)C2 | 16 (≈ 38.2 µM) | 2.7 (≈ 1.13 µg/mL) | 0.055 (≈ 0.023 µg/mL) |
| O=[N+]([O-])c1cn2c(n1)OC[C@@H](OCc1cccc(-c3cccnc3)c1)C2 | 110 (≈ 312 µM) | 9.7 (≈ 3.42 µg/mL) | 1.4 (≈ 0.493 µg/mL) |
| O=[N+]([O-])c1cn2c(n1)OC[C@@H](OCc1ncc(-c3ccc(C(F)(F)F)nc3)cn1)C2 | 85 (≈ 201 µM) | 14 (≈ 5.91 µg/mL) | 0.28 (≈ 0.118 µg/mL) |
| COc1ccc(-c2ccc(CO[C@@H]3COc4nc([N+](=O)[O-])cn4C3)nn2)cn1 | 34 (≈ 88.5 µM) | 20 (≈ 7.69 µg/mL) | 0.72 (≈ 0.277 µg/mL) |
| O=[N+]([O-])c1cn2c(n1)OC[C@@H](OCc1ccccc1-c1ccc(OCc3ccccc3)nc1)C2 | 1.2 (≈ 2.62 µM) | 10 (≈ 4.58 µg/mL) | 2.7 (≈ 1.24 µg/mL) |
| COc1ccc(-c2cccc(CO[C@@H]3COc4nc([N+](=O)[O-])cn4C3)c2)cn1 | 18 (≈ 47.1 µM) | 1.7 (≈ 0.65 µg/mL) | 0.4 (≈ 0.153 µg/mL) |
| O=[N+]([O-])c1cn2c(n1)OC[C@@H](OCc1ccc(-c3ccc(OC(F)(F)F)cc3Cl)cn1)C2 |  | 2.6 (≈ 1.22 µg/mL) | 0.14 (≈ 0.0659 µg/mL) |
| O=[N+]([O-])c1cn2c(n1)OC[C@@H](OCc1ccc(-c3ccc(C(F)(F)F)cc3)nn1)C2 | 5.4 (≈ 12.8 µM) | 2.8 (≈ 1.18 µg/mL) | 0.06 (≈ 0.0253 µg/mL) |
| O=[N+]([O-])c1cn2c(n1)OC[C@@H](OCc1cccc(-c3ccc(C(F)(F)F)nc3)c1)C2 | 1.1 (≈ 2.62 µM) | 8.4 (≈ 3.53 µg/mL) | 0.47 (≈ 0.198 µg/mL) |
| COc1ccc(-c2cncc(CO[C@@H]3COc4nc([N+](=O)[O-])cn4C3)c2)cc1F | 24 (≈ 59.9 µM) | 9 (≈ 3.6 µg/mL) | 0.91 (≈ 0.364 µg/mL) |
| O=[N+]([O-])c1cn2c(n1)OC[C@@H](OCc1ccc(-c3ccc(OC(F)(F)F)cc3F)cn1)C2 |  | 1.7 (≈ 0.772 µg/mL) | 0.06 (≈ 0.0273 µg/mL) |
| O=[N+]([O-])c1cn2c(n1)OC[C@@H](OCc1cccc(-c3ccc(OC(F)(F)F)cc3)n1)C2 |  | 1.4 (≈ 0.611 µg/mL) | 0.16 (≈ 0.0698 µg/mL) |
| O=[N+]([O-])c1cn2c(n1)OC[C@@H](OCc1cnc(-c3ccc(C(F)(F)F)cc3)nc1)C2 |  | 9.4 (≈ 3.96 µg/mL) | 0.025 (≈ 0.0105 µg/mL) |
| O=[N+]([O-])c1cn2c(n1)OC[C@@H](OCc1ccccc1-c1ccncc1)C2 |  | > 32 | > 8 |
| O=[N+]([O-])c1cn2c(n1)OC[C@@H](OCc1cccc(-c3ccncc3)c1)C2 |  | > 32 | 1.4 (≈ 0.493 µg/mL) |
| O=[N+]([O-])c1cn2c(n1)OC[C@@H](OCc1ccc(-c3ccc(OC(F)F)cc3)cn1)C2 |  | 4 (≈ 1.67 µg/mL) | 0.02 (≈ 0.00837 µg/mL) |
| O=[N+]([O-])c1cn2c(n1)OC[C@@H](OCc1ccc(-c3ccc(F)cc3)cn1)C2 |  | 3.2 (≈ 1.19 µg/mL) | 0.13 (≈ 0.0481 µg/mL) |
| O=[N+]([O-])c1cn2c(n1)OC[C@@H](OCc1ccc(-c3ccc(OC(F)(F)F)cc3Cl)nc1)C2 |  | 1.6 (≈ 0.753 µg/mL) | 0.03 (≈ 0.0141 µg/mL) |
| O=[N+]([O-])c1cn2c(n1)OC[C@@H](OCc1cccc(-c3ccc(F)cc3)n1)C2 |  | 2.7 (≈ 1 µg/mL) | 0.3 (≈ 0.111 µg/mL) |
| O=[N+]([O-])c1cn2c(n1)OC[C@@H](OCc1cc(-c3ccc(OC(F)(F)F)cc3)ccn1)C2 |  | 18 (≈ 7.85 µg/mL) | 0.76 (≈ 0.332 µg/mL) |
| O=[N+]([O-])c1cn2c(n1)OC[C@@H](OCc1ccc(-c3ccc(C(F)(F)F)cc3)cc1)C2 | 0.43 (≈ 1.03 µM) |  |  |
| O=[N+]([O-])c1cn2c(n1)OC[C@@H](OCc1cccc(-c3ccccn3)c1)C2 |  | 11 (≈ 3.88 µg/mL) | 1.4 (≈ 0.493 µg/mL) |
| O=[N+]([O-])c1cn2c(n1)OC[C@@H](OCc1cnc(-c3ccc(F)cc3)nc1)C2 |  | 5.4 (≈ 2.01 µg/mL) | 0.11 (≈ 0.0408 µg/mL) |
